One block for each compound: values may come before it.
Legend:
[1] = target: T1, Neuronal acetylcholine receptor subunit alpha-7 (Rattus norvegicus, UniProt Q05941); test: Agonist activity at rat alpha7 nAChR expressed in HEK293 cells assessed as calcium ion influx by FRET assay; assay type: cell-based
[2] = Permeability of the compound at pH 7.4 by PAMPA; assay type: ADME; details: read-out: permeability
[3] = Ratio of drug level in brain to plasma in sc dosed rat after 30 mins; assay type: ADME, organism-based; details: read-out: BPR
[4] = Dissociation constant, pKa of the compound; assay type: physicochemical
[5] = Efflux ratio of the compound in human Caco2 cells; assay type: ADME, cell-based; details: Caco-2
[6] = target: Neuronal acetylcholine receptor subunit alpha-7 (Rattus norvegicus) (UniProt Q05941); test: Agonist activity at rat alpha7 nAChR expressed in HEK293 cells assessed as peak intensity of acetylcholine-induced response by whole-cell patch clamp electrophysiology paradigm assay relative to control; assay type: cell-based
[7] = Selectivity ratio of IC50 for 5HT3 receptor (unknown origin) to EC50 for rat alpha7 nAChR
[8] = Selectivity ratio of EC50 for alpha1beta1deltaepsilon nAChR (unknown origin) to EC50 for rat alpha7 nAChR
[9] = target: Neuronal acetylcholine receptor subunit alpha-7 (Rattus norvegicus) (UniProt Q05941); test: Agonist activity at rat alpha7 nAChR expressed in HEK293 cells assessed as area under the curve of acetylcholine-induced response by whole-cell patch clamp electrophysiology paradigm assay relative to control; assay type: cell-based
[10] = Selectivity ratio of EC50 for alpha4beta2 nAChR (unknown origin) to EC50 for rat alpha7 nAChR
[11] = Selectivity ratio of EC50 for alpha3beta4 nAChR (unknown origin) to EC50 for rat alpha7 nAChR
[12] = Ratio of drug level in brain to plasma in ip dosed rat after 30 mins; assay type: ADME, organism-based; details: read-out: BPR
[13] = target: T1, Neuronal acetylcholine receptor subunit alpha-7; test: Agonist activity at rat alpha7 nAChR expressed in HEK293 cells assessed as area under the curve of acetylcholine-induced response by whole-cell patch clamp electrophysiology paradigm assay; assay type: cell-based
[14] = target: T2, 5-hydroxytryptamine receptor 3A (Homo sapiens, UniProt P46098); test: Inhibition of 5HT3 receptor (unknown origin)
T2 sequence (P46098 whole entry): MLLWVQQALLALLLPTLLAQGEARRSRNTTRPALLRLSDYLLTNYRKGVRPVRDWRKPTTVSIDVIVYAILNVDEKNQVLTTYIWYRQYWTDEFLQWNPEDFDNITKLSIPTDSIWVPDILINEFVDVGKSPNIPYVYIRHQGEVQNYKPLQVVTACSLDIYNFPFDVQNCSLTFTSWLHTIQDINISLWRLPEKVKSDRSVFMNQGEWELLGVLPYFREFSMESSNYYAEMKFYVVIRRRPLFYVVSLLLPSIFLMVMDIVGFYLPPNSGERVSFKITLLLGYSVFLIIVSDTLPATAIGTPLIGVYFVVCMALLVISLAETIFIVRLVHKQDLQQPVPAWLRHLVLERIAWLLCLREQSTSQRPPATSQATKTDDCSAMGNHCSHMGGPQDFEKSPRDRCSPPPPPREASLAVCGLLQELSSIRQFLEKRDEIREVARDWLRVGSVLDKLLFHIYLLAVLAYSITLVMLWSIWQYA

[15] = target: Neuronal acetylcholine receptor; alpha4/beta2 (Homo sapiens, UniProt P17787+P43681); test: Agonist activity at alpha4beta2 nAChR (unknown origin); assay type: protein-complex assay
[16] = target: Acetylcholine receptor; alpha1/beta1/delta/gamma (Homo sapiens, UniProt P02708+P07510+P11230+Q07001); test: Agonist activity at alpha1beta1deltaepsilon nAChR (unknown origin); assay type: protein-complex assay
[17] = target: Neuronal acetylcholine receptor; alpha3/beta4 (Homo sapiens, UniProt P30926+P32297); test: Agonist activity at alpha3beta4 nAChR (unknown origin); assay type: protein-complex assay
Neuronal acetylcholine receptor; alpha3/beta4, sequence (P30926 whole entry): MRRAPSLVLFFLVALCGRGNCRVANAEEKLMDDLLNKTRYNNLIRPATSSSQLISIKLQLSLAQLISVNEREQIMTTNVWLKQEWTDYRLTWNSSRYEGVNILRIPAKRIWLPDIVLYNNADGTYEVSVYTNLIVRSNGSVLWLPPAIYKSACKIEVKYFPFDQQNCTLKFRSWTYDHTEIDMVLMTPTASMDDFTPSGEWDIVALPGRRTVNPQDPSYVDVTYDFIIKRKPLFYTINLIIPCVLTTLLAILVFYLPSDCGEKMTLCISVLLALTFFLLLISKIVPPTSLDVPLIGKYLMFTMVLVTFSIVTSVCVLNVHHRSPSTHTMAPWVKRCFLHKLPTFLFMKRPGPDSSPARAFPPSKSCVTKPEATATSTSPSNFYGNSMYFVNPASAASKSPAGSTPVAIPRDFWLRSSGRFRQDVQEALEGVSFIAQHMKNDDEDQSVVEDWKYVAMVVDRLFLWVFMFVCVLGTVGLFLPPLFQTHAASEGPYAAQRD
Neuronal acetylcholine receptor; alpha3/beta4, sequence (P32297 whole entry): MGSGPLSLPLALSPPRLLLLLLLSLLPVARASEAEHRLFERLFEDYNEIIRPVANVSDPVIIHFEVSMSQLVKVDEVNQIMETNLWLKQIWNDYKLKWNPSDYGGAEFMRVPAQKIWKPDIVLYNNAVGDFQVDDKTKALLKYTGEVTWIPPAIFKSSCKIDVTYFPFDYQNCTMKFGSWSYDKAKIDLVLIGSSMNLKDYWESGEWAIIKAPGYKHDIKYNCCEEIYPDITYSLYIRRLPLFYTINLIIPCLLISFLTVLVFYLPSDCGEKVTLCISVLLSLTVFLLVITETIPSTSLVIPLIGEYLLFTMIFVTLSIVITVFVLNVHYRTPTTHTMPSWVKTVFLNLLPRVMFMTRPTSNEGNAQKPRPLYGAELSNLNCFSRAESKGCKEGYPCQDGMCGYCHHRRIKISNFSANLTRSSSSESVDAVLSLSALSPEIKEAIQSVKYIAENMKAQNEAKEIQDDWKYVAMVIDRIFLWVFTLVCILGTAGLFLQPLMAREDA

Neuronal acetylcholine receptor subunit alpha-7 (Rattus norvegicus), sequence (Q05941 whole entry): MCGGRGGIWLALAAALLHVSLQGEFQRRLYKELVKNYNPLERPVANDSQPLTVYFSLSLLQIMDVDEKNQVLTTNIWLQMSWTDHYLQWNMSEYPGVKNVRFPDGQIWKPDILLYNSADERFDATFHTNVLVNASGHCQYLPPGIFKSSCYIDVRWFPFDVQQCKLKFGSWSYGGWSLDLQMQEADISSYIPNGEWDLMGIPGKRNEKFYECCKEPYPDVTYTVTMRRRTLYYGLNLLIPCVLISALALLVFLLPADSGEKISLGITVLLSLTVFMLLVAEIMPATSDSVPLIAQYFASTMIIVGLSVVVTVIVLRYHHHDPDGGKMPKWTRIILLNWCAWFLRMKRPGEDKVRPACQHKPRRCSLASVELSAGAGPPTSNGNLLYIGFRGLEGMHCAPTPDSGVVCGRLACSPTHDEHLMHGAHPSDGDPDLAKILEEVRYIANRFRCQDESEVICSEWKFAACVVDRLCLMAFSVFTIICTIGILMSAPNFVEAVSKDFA
T1 sequence (Q05941 whole entry): as above
Acetylcholine receptor; alpha1/beta1/delta/gamma, sequence (P02708 whole entry): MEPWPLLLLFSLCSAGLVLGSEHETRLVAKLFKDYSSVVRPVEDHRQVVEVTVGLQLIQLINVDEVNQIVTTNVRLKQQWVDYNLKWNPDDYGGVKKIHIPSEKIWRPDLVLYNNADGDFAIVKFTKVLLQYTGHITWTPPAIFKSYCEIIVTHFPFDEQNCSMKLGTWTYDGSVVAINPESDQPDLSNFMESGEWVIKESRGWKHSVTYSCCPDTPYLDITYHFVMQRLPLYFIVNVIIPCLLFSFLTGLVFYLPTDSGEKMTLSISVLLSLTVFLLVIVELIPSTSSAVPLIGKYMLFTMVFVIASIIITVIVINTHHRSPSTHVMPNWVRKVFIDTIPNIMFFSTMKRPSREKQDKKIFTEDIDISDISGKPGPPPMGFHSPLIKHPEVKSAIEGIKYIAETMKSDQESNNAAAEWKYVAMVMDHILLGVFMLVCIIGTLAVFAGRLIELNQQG
Acetylcholine receptor; alpha1/beta1/delta/gamma, sequence (P07510 whole entry): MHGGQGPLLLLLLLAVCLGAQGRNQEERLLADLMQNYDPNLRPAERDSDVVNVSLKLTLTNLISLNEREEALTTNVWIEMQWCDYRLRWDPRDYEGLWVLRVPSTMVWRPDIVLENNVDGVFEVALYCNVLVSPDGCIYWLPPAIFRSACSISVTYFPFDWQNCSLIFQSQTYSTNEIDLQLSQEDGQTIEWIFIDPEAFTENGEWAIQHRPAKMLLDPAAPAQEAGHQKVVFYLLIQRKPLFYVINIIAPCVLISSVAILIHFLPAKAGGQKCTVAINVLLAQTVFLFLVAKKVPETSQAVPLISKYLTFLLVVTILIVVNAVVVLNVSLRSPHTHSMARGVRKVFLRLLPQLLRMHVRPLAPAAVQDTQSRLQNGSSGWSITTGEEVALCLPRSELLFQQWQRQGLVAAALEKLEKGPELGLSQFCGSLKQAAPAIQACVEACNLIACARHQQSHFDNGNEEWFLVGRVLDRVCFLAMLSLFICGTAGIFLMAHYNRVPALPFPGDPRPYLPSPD
Acetylcholine receptor; alpha1/beta1/delta/gamma, sequence (P11230 whole entry): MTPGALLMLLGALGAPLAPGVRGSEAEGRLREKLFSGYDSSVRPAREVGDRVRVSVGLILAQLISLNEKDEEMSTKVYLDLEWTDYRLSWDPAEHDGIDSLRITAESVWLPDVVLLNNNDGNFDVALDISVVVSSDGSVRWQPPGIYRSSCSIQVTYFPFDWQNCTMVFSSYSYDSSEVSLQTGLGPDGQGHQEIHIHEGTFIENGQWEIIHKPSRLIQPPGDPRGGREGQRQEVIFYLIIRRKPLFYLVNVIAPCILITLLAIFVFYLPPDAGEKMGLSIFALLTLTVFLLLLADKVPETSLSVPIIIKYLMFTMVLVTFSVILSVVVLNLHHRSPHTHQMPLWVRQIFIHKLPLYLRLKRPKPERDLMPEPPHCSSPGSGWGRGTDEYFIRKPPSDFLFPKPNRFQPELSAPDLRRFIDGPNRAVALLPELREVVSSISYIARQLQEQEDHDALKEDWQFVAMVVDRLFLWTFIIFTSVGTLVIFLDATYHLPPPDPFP
Acetylcholine receptor; alpha1/beta1/delta/gamma, sequence (Q07001 whole entry): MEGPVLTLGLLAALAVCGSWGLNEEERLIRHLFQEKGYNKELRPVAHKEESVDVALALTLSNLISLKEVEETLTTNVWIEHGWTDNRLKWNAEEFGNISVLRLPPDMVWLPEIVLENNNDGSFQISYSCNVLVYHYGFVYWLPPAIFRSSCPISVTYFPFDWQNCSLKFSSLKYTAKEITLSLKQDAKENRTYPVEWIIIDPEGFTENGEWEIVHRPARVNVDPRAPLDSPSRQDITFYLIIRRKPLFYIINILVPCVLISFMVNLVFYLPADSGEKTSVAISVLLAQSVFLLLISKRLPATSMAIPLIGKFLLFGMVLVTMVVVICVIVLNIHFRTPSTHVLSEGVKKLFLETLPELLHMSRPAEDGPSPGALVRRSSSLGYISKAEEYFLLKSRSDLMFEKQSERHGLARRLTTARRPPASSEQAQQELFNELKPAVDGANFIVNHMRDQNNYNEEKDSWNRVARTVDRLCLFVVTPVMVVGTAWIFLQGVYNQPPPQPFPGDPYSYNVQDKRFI
Neuronal acetylcholine receptor; alpha4/beta2, sequence (P17787 whole entry): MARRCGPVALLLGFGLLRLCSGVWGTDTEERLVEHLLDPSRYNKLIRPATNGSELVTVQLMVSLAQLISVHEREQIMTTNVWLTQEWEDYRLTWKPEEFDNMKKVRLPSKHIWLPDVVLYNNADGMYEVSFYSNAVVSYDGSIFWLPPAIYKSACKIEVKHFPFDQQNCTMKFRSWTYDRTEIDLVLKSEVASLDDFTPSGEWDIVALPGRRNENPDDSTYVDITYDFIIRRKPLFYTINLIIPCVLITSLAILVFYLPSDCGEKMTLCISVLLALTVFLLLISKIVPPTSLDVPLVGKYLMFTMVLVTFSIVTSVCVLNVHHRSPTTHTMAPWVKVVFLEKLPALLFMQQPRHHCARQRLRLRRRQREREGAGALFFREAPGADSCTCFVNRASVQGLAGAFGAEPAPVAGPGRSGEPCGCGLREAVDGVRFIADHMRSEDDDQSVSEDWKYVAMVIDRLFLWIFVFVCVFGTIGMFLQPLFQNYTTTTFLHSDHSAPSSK
Neuronal acetylcholine receptor; alpha4/beta2, sequence (P43681 whole entry): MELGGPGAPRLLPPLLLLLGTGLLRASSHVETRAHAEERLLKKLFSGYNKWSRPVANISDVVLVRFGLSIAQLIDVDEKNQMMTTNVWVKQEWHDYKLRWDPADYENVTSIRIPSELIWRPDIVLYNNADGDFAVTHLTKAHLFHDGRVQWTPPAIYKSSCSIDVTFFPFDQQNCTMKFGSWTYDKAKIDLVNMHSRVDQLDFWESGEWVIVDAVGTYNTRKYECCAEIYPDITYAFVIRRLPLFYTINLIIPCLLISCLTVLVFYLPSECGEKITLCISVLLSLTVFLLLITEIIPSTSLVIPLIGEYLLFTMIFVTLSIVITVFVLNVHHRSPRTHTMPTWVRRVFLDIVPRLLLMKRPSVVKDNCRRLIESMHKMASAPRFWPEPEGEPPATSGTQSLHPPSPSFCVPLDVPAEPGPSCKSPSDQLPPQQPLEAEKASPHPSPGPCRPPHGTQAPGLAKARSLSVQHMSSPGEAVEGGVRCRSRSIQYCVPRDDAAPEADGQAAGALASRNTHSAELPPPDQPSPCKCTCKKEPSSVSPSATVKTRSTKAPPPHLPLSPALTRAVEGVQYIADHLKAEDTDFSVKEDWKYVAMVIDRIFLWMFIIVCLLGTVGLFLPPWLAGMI

SMILES: CN(C)CCCn1ccc(-c2ccccc2)c(C#N)c1=O
EC50 [1]: > 10000 nM

SMILES: c1cnc2c(c1)C[C@@]1(CN3CCC1CC3)O2 [AZD0328]
Papp [2]: 51 ×10⁻⁶ cm/s | Kp at 0.5 h [3]: 1.7 | pKa [4]: 8.9 | efflux ratio [5]: 0.9

SMILES: CN(C)CCCn1c(=O)c(C#N)cc2ccccc21
EC50 [1]: > 10000 nM

EC50 [1]: 1300 nM
SMILES: COc1cccc(-c2cc(=O)n(CC3CCCNC3)c3ccccc23)c1 (racemic)

SMILES: CC(=O)NCc1cccc(-c2cc(=O)n(CC3CN4CCC3CC4)c3ccccc23)c1 (racemic)
Emax [6]: 21% | Ratio IC50/EC50 [7]: 50 | Ratio EC50 [8]: 100 | Emax [9]: 84% | EC50 [1]: 32 nM | Ratio EC50 [10]: 100 | Papp [2]: 0.1 ×10⁻⁶ cm/s | Ratio EC50 [11]: 100

SMILES: CN1CCCC(Cn2c(=O)c(C#N)c(-c3ccccc3)c3ccccc32)C1 (racemic)
EC50 [1]: > 10000 nM

EC50 [1]: 9300 nM
SMILES: N#Cc1c(-c2ccccc2)c2ccccc2n(CCCN2CCCC2)c1=O

SMILES: O=c1cc(-c2ccccc2)c2ccccc2n1CC1CN2CCC1CC2 (centres undefined)
Emax [6]: 60% | Kp at 0.5 h [12]: 0.02 | Emax [9]: 110% | EC50 [1]: 150 nM | EC50 [13]: 760 nM | Papp [2]: 90 ×10⁻⁶ cm/s | pKa [4]: 10.1 | efflux ratio [5]: 6.9

EC50 [1]: 4300 nM
SMILES: CCN(C)CCCn1c(=O)c(C#N)c(-c2ccccc2)c2ccccc21

EC50 [1]: 1500 nM
SMILES: Cc1ccccc1-c1cc(=O)n(CC2CCCNC2)c2ccccc12 (racemic)

EC50 [1]: 100 nM
SMILES: CC(=O)NCc1cccc(-c2cc(=O)n(CC3CCCNC3)c3ccccc23)c1 (racemic)

SMILES: CC(CCn1c(=O)cc(-c2ccccc2)c2ccccc21)N(C)C (racemic)
EC50 [1]: > 10000 nM

SMILES: Cc1ccc(-c2cc(=O)n(CC3CCCNC3)c3ccccc23)cc1 (racemic)
EC50 [1]: > 10000 nM

SMILES: CS(=O)(=O)NCc1cccc(-c2cc(=O)n(CC3CN4CCC3CC4)c3ccccc23)c1 (racemic)
Emax [6]: 21% | Ratio IC50/EC50 [7]: 50 | Ratio EC50 [8]: 100 | Emax [9]: 97% | EC50 [1]: 14 nM | EC50 [13]: 260 nM | Ratio EC50 [10]: 100 | Ratio EC50 [11]: 100

EC50 [1]: 77 nM
SMILES: CS(=O)(=O)NCc1cccc(-c2cc(=O)n(CC3CCCNC3)c3ccccc23)c1 (racemic)

Emax [6]: 34% | Emax [9]: 41% | EC50 [1]: 260 nM | EC50 [13]: 1200 nM | Papp [2]: 55 ×10⁻⁶ cm/s | Kp at 0.5 h [3]: 0.9 | pKa [4]: 8.1 | efflux ratio [5]: 1
SMILES: O=c1cc(-c2ccccc2)c2ccccc2n1CC1CNCCO1 (centres undefined)

EC50 [1]: 2800 nM
SMILES: CN(C)CCCn1c(=O)cc(-c2ccccc2)c2ccccc21

SMILES: CN(C)CCn1c(=O)cc(-c2ccccc2)c2ccccc21
EC50 [1]: > 10000 nM

SMILES: O=c1cc(-c2ccccc2)c2ccccc2n1CC1CN2CCC1(F)CC2 (racemic)
Papp [2]: 38 ×10⁻⁶ cm/s | pKa [4]: 7.6 | efflux ratio [5]: 0.6

Emax [6]: 60% | Emax [9]: 30% | EC50 [1]: 210 nM | EC50 [13]: 2500 nM
SMILES: O=c1cc(-c2ccccc2)c2ccccc2n1CC1CCCNC1 (centres undefined)

EC50 [1]: 110 nM
SMILES: O=c1cc(-c2cccc3[nH]ccc23)c2ccccc2n1CC1CCCNC1 (racemic)

Emax [6]: 15% | IC50 [14]: 19000 nM | Emax [9]: 44% | EC50 [1]: 1300 nM | EC50 [13]: 8200 nM | EC50 [15]: > 100000 nM | EC50 [16]: > 100000 nM | EC50 [17]: > 100000 nM
SMILES: CN(C)CCCn1c(=O)c(C#N)c(-c2ccccc2)c2ccccc21

SMILES: CN(C)CCCCn1c(=O)cc(-c2ccccc2)c2ccccc21
EC50 [1]: > 10000 nM

EC50 [1]: 460 nM
SMILES: N#Cc1c(-c2ccccc2)c2ccccc2n(CC2CCCNC2)c1=O (racemic)

SMILES: CC(CN(C)C)Cn1c(=O)cc(-c2ccccc2)c2ccccc21 (racemic)
EC50 [1]: > 10000 nM

EC50 [1]: 900 nM
SMILES: CNCCCn1c(=O)c(C#N)c(-c2ccccc2)c2ccccc21

SMILES: O=c1cc(-c2cccc3[nH]ccc23)c2ccccc2n1CC1CN2CCC1CC2 (racemic)
Emax [6]: 62% | Ratio IC50/EC50 [7]: 50 | Ratio EC50 [8]: 100 | Emax [9]: 80% | EC50 [1]: 23 nM | EC50 [13]: 540 nM | Ratio EC50 [10]: 100 | Papp [2]: 40 ×10⁻⁶ cm/s | Ratio EC50 [11]: 100 | efflux ratio [5]: > 18

Source: ChEMBL document CHEMBL2331502, “Discovery of a novel series of quinolone α7 nicotinic acetylcholine receptor agonists” (Bioorg Med Chem Lett, 2013)
